In PubChem BioAssay (NCI):
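Briefly, cells in 96-well plates were exposed to five compound concentrations for 48 h, and endpoints were estimated by linear interpolation. At the GI50, growth is halved. Definition used: TGI = concentration required for complete inhibition of growth.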

Experiments:
Assay in all cases: NCI-60 cell line screen, 48 h
[1] = system: ACHN renal
[2] = system: CCRF-CEM leukemia
[3] = system: HOP-92 NSCLC
[4] = system: K-562 leukemia
[5] = system: RPMI-8226 leukemia
[6] = system: SK-MEL-2 melanoma
[7] = system: SK-MEL-5 melanoma
[8] = system: U251 CNS
[9] = system: UO-31 renal
[10] = system: T-47D breast

Structure (SMILES) | TGI [1] | TGI [2] | TGI [3] | TGI [4] | TGI [5] | TGI [6] | TGI [7] | TGI [8] | TGI [9] | GI50 [1] | GI50 [3] | GI50 [4] | GI50 [5] | GI50 [6] | GI50 [7] | GI50 [10] | TGI [10] | GI50 [8] | GI50 [9] | GI50 [2]
CC1=C(C(=O)Nc2ccccc2C)C(c2ccc(C3C(C(=O)Nc4ccccc4C)=CNC=C3C(=O)Nc3ccccc3C)cc2)C(C(=O)Nc2ccccc2C)=C(C)N1 | 30.6 µM | > 29 µM | 46.4 µM | > 73.4 µM | > 73 µM | 31.6 µM | 17.8 µM | 24.7 µM | 40 µM |  |  |  |  |  |  |  |  |  |  | 
Cc1cc2c(cc1C)[n+](=O)c(C(=O)/C=C/c1ccccc1Cl)c(C)n2[O-] | 58.1 µM | > 100 µM |  | > 100 µM | > 100 µM | 68.7 µM | 59.6 µM | 84.4 µM | 48.2 µM |  |  |  |  |  |  |  |  |  |  | 
C=C(CN1CCN(c2cccc(F)c2)CC1)c1ccc(C(=O)Nc2ccccc2N)cc1 | 90.7 µM |  | 6.97 µM | 13.4 µM | 2.89 µM | > 100 µM | 17.2 µM | 43 µM | 10.2 µM | 4.59 µM | 0.6 µM | 0.706 µM | 0.429 µM | 4.89 µM | 1.91 µM | 4.38 µM | > 100 µM | 1.41 µM | 1.31 µM | 
CCC(/C(=N\Nc1c(Cl)cc(Cl)cc1Cl)c1ccccc1)n1ccnc1C (centres undefined) | 19.5 µM | > 100 µM | 19.7 µM | 51.6 µM | 41 µM | 28.1 µM | 21.2 µM | 28.4 µM | 20.1 µM |  |  |  |  |  |  |  |  |  |  | 
COc1ccc(Cn2c(Br)c3c(c2-c2cc(OC)c(OC)c(OC)c2)CCc2sc(NC(C)=O)nc2-3)cc1 | 26.9 µM |  | 9.64 µM | > 100 µM | > 100 µM | > 100 µM | 21.4 µM | > 100 µM | 35.1 µM | 5.27 µM | 1.88 µM | 3.67 µM | 4.23 µM | 3.82 µM | 2.82 µM | 4.65 µM | > 100 µM | 3.69 µM | 3.69 µM | 
O=C(c1ccc2c3c(ccc(C(=O)C(F)(F)F)c13)CC2)C(F)(F)F | > 100 µM |  | 76.2 µM |  |  | > 100 µM |  | > 100 µM | > 100 µM |  |  |  |  |  |  |  |  |  |  | 
Oc1cc2c(cc1O)-c1[nH]ncc1CC2 | > 100 µM | 47.7 µM | 66.4 µM | > 100 µM |  | > 100 µM | > 100 µM | 44.6 µM | 79.1 µM |  |  |  |  |  |  |  |  |  |  | 
CC(C)Oc1ccc(C(=O)N[C@H](CNC(=O)CN(C)C)Cc2ccc(-c3cn4cccc([C@H](C)O)c4n3)cc2)cc1Cl | 21.8 µM |  | 24.3 µM | 14.7 µM | 19.8 µM | 11.1 µM | 2.82 µM | 19.2 µM | 19.1 µM | 6.6 µM | 11.2 µM | 0.0375 µM | 0.0399 µM | 0.0434 µM | 0.33 µM | 3.72 µM | 30.3 µM | 0.0534 µM | 2.56 µM | 
O=c1[nH]c(/C=C(\O)c2ccncc2)nc2ccccc12 | > 100 µM | > 100 µM |  | > 100 µM | > 100 µM | > 100 µM | > 100 µM | > 100 µM | > 100 µM |  |  |  |  |  |  |  |  |  |  | 
O=[N+]([O-])c1ccc(-c2cn(-c3ccc(Cl)cc3)cn2)cc1 | > 100 µM | > 100 µM |  | > 100 µM | > 100 µM | > 100 µM | > 100 µM | > 100 µM | > 100 µM |  |  |  |  |  |  |  | > 100 µM |  |  | 
C[C@@]1(N2C(=O)OC[C@@H]2c2ccccc2)C(=O)N([C@H](CC(=O)N2CCC(N3CCCCC3)CC2)C(=O)NCc2cccc(C(F)(F)F)c2)[C@@H]1/C=C/c1ccccc1 | 4.61 µM | 7.07 µM |  | 4.82 µM | 6.38 µM | 4.22 µM | 3.21 µM | 3.43 µM | 3.52 µM | 2.03 µM |  | 2.07 µM | 2.59 µM | 2.13 µM | 1.81 µM | 1.77 µM | 3.53 µM | 1.83 µM | 1.79 µM | 2.97 µM
CN(C)/C(N)=N/C(N)=S | > 100 µM |  | > 100 µM | > 100 µM | > 100 µM |  |  | > 100 µM | > 100 µM |  |  |  |  |  |  |  |  |  |  | 
CSc1nc2c(c(=O)[nH]1)C(c1ccc(Cl)cc1)C1=C(N2)/C(=C/c2ccc(Cl)cc2)CNC1 (centres undefined) | 3.86 µM | 8.99 µM |  | 15.1 µM | 3.14 µM | 9.53 µM | 12.4 µM | 3.09 µM | 2.91 µM | 1.81 µM |  | 3.09 µM | 0.629 µM | 2.76 µM | 3.26 µM | 3.65 µM | 15.7 µM | 1.61 µM | 1.43 µM | 2.55 µM
O=C1C(N2C(=O)c3ccccc3C2=O)CN1C(COCc1ccccc1)c1ccc(OCc2ccccc2)cc1 (centres undefined) | > 100 µM | > 100 µM | > 100 µM | > 100 µM | > 100 µM |  | > 100 µM | > 100 µM | > 100 µM |  |  |  |  |  |  |  |  |  |  | 
COC(=O)C1C2CCCN2OC1(C)CO (centres undefined) | > 100 µM | > 100 µM |  | > 100 µM | > 100 µM | > 100 µM | > 100 µM | > 100 µM | > 100 µM |  |  |  |  |  |  |  | > 100 µM |  |  | 
N#CC1=C(c2ccccc2)C(O)(c2ccccc2)NC1=O (centres undefined) | > 100 µM | > 100 µM | 75.2 µM | > 100 µM | > 100 µM | > 100 µM | > 100 µM | > 100 µM | > 100 µM |  |  |  |  |  |  |  |  |  |  | 
COc1ccc(C(=O)O)c(Cc2ccc3ccccc3c2)c1 | > 100 µM | > 100 µM | > 100 µM | > 100 µM | > 100 µM | > 100 µM | > 100 µM | > 100 µM | > 100 µM |  |  |  |  |  |  |  |  |  |  | 
ClC[Si]12OCCN(CCO1)CCO2 | > 100 µM | > 100 µM | > 100 µM | > 100 µM | > 100 µM | > 100 µM | > 100 µM | > 100 µM | > 100 µM |  |  |  |  |  |  |  |  |  |  | 
COc1ccc(-c2nocc2-c2cc(OC)c(OC)c(OC)c2)cc1 | > 70.3 µM | > 100 µM | 59 µM | > 100 µM | 30.9 µM | 69.2 µM | 4.45 µM | > 81.1 µM | 29 µM | 1.53 µM | 2.02 µM | 0.0426 µM | 0.348 µM | 0.0664 µM | 0.0736 µM |  |  | 0.0793 µM | 0.54 µM | 0.189 µM
